In ChEMBL document CHEMBL5303304, “EUbOPEN Chemogenomics Library - IncuCyte” (2023):

Experiments:
Assay type in all cases: toxicity, cell-based
HEK-293T = experiment: Incucyte cell viability with HEK293T; conditions: human, 10 µM, compound concentration 10 uM
Fibroblast = experiment: Incucyte cell viability with human fibroblast; conditions: 10 µM, compound concentration 10 uM
U2OS = experiment: Incucyte cell viability with U2OS; conditions: human, 10 µM, compound concentration 10 uM
Also: unitless GR value; below 1 slowed growth and below 0 cell loss.

| Structure (SMILES) | Growth Rate (HEK-293T; 0 h, replicate number 1) | Growth Rate (HEK-293T; 24 h, replicate number 2) | Growth Rate (Fibroblast; 0 h, replicate number 2) | Growth Rate (Fibroblast; 6 h, replicate number 1) | Growth Rate (Fibroblast; 6 h, replicate number 2) | Growth Rate (Fibroblast; 12 h, replicate number 2) | Growth Rate (Fibroblast; 18 h, replicate number 1) | Growth Rate (Fibroblast; 18 h, replicate number 2) | Growth Rate (U2OS; 0 h, replicate number 1) | Growth Rate (U2OS; 12 h, replicate number 1) | Growth Rate (U2OS; 12 h, replicate number 2) | Growth Rate (U2OS; 18 h, replicate number 1) | Growth Rate (HEK-293T; 0 h, replicate number 2) | Growth Rate (HEK-293T; 12 h, replicate number 2) | Growth Rate (Fibroblast; 12 h, replicate number 1) | Growth Rate (U2OS; 6 h, replicate number 2) | Growth Rate (U2OS; 18 h, replicate number 2) | Growth Rate (U2OS; 24 h, replicate number 2) | Growth Rate (Fibroblast; 24 h, replicate number 1) | Growth Rate (HEK-293T; 6 h, replicate number 2) | further results |
| --- | --- | --- | --- | --- | --- | --- | --- | --- | --- | --- | --- | --- | --- | --- | --- | --- | --- | --- | --- | --- | --- |
| C[C@H](CCC(=O)[O-])[C@H]1CC[C@H]2[C@@H]3[C@@H](O)C[C@@H]4C[C@H](O)CC[C@]4(C)[C@H]3CC[C@]12C.[Na+] | 0.59 | 1 | 0.84 | 0.88 | 0.93 | 0.91 | 0.83 | 0.77 | -0.51 | 0.47 | 1 | 0.72 | – | – | – | – | – | – | – | – | Growth Rate (Fibroblast; 24 h, replicate number 2): 0.88; Growth Rate (U2OS; 0 h, replicate number 2): 0.8; Growth Rate (U2OS; 6 h, replicate number 1): 0.4 |
| O=C(O)CNC(=O)c1c(O)c2ccccc2n(Cc2ccccc2)c1=O | -0.08 | 0.93 | 0.56 | – | 0.61 | 0.68 | – | 0.94 | 0.29 | 0.92 | 0.94 | 0.86 | -0.1 | 0.91 | 0.75 | 0.74 | 0.9 | 0.97 | – | – | Growth Rate (HEK-293T; 18 h, replicate number 2): 0.99; Growth Rate (U2OS; 0 h, replicate number 2): 0.34 |
| C[C@@H](CO)CCC[C@@H](C)[C@H]1CC[C@H]2[C@@H]3CC=C4C[C@@H](O)CC[C@]4(C)[C@H]3CC[C@]12C | 0.34 | 1 | – | 0.92 | 0.36 | 0.22 | 0.33 | 0.27 | – | 0.84 | – | 0.88 | – | 0.79 | 0.57 | 0.82 | – | – | 0.6 | – | Growth Rate (Fibroblast; 0 h, replicate number 1): 0.73; Growth Rate (Fibroblast; 24 h, replicate number 2): 0.25 |
| CCOC(=O)c1ccc(CN(Cc2ccc(-c3cccc(S(C)(=O)=O)c3)cc2)S(=O)(=O)c2c(C)cc(C)cc2C)o1 | -0.26 | – | – | – | 0.38 | 0.87 | 0.86 | 0.84 | – | – | – | – | – | 0.98 | 0.59 | – | – | 0.89 | 0.99 | – | Growth Rate (Fibroblast; 0 h, replicate number 1): 0.32; Growth Rate (Fibroblast; 24 h, replicate number 2): 0.87 |
| O=C(Cc1ccccc1[N+](=O)[O-])Nc1ccc(-c2ccc(C(O)(C(F)(F)F)C(F)(F)F)cc2F)cc1 | 0.09 | 0.74 | – | -0.02 | -0.05 | 0.28 | 0.13 | -0.04 | – | – | 0.85 | – | -0.97 | 0.64 | 0.45 | 0.87 | 0.73 | 0.66 | -0.02 | 0.13 | Growth Rate (HEK-293T; 6 h, replicate number 1): 0.35; Growth Rate (HEK-293T; 12 h, replicate number 1): 0.73; Growth Rate (HEK-293T; 18 h, replicate number 1): 0.7; Growth Rate (HEK-293T; 18 h, replicate number 2): 0.6; Growth Rate (HEK-293T; 24 h, replicate number 1): 0.78; Growth Rate (Fibroblast; 24 h, replicate number 2): -0.14 |
| Clc1ccc(-c2nc3sccn3c2/C=N/OCc2ccc(Cl)c(Cl)c2)cc1 | -0.74 | – | 0.32 | 0.02 | – | – | 0.63 | – | 0.48 | 0.92 | 0.89 | 0.87 | -0.64 | 1 | 0.58 | 0.91 | 0.95 | 0.93 | 0.85 | 1 | – |
| CCOP(=O)(OCC)C(=Cc1cc(C(C)(C)C)c(O)c(C(C)(C)C)c1)P(=O)(OCC)OCC | 0.16 | 0.95 | 0.24 | 0.57 | 0.08 | – | 0.39 | 0.7 | – | – | 0.63 | – | -0.99 | 0.55 | 0.78 | 0.36 | 0.75 | 0.77 | 0.61 | 0.25 | Growth Rate (HEK-293T; 18 h, replicate number 1): 0.94; Growth Rate (HEK-293T; 18 h, replicate number 2): 0.79; Growth Rate (U2OS; 0 h, replicate number 2): 0.17 |
| CCc1ccc(-c2ncn(CC3(F)CCN(C)CC3)c2-c2ccnc3[nH]ccc23)nc1 | -0.12 | 0.69 | 0.42 | – | 0.83 | – | 0.78 | 0.97 | 0.47 | 0.71 | 0.69 | 0.85 | 0.98 | 0.35 | – | – | 0.83 | 0.75 | 0.93 | 0.08 | Growth Rate (HEK-293T; 6 h, replicate number 1): 0; Growth Rate (HEK-293T; 12 h, replicate number 1): 0.43; Growth Rate (HEK-293T; 18 h, replicate number 1): 0.76; Growth Rate (HEK-293T; 18 h, replicate number 2): 0.72; Growth Rate (HEK-293T; 24 h, replicate number 1): 0.9; Growth Rate (Fibroblast; 0 h, replicate number 1): 0.78; Growth Rate (U2OS; 6 h, replicate number 1): 0.66; Growth Rate (U2OS; 24 h, replicate number 1): 0.87 |
| CN(C)[C@H]1C[C@H](n2cnc(-c3ccc(F)cn3)c2-c2ccnc3[nH]ccc23)C1 | 0.9 | – | 0.15 | – | – | – | 0.84 | – | 0.83 | – | 0.81 | – | -0.95 | – | 0.89 | 0.94 | 0.94 | 0.85 | – | 0.95 | – |
| Cn1ccc(Cn2cnc(-c3ccc(F)cc3)c2-c2ccnc3[nH]ccc23)n1 | -0.47 | 0.89 | 0.53 | – | – | – | – | – | 0.48 | 0.89 | 0.94 | – | 0.06 | 0.86 | – | 0.97 | 0.95 | 0.89 | – | – | Growth Rate (HEK-293T; 18 h, replicate number 2): 0.98; Growth Rate (Fibroblast; 0 h, replicate number 1): 0.19; Growth Rate (U2OS; 6 h, replicate number 1): 0.89 |
| CN(C)c1ncc2cc(-c3ccc(-c4ncccc4F)cc3Cl)c(=O)n(C[C@H]3OC[C@H](N)CO3)c2n1 | -1 | – | -0.89 | – | – | – | – | – | – | – | 0.96 | – | – | – | – | – | 0.99 | – | – | – | Growth Rate (Fibroblast; 0 h, replicate number 1): -0.2 |
| CN1CCC(F)(Cn2cnc(-c3ccc(F)cn3)c2-c2ccnc3[nH]ccc23)CC1 | 0.3 | 0.74 | – | -0.23 | 0.29 | 0.78 | 0.66 | 0.68 | 0.97 | 0.8 | 0.87 | -0.61 | -0.77 | 0.86 | 0.6 | 0.77 | 0.94 | 0.68 | 0.81 | 0.85 | Growth Rate (HEK-293T; 6 h, replicate number 1): 0.99; Growth Rate (HEK-293T; 18 h, replicate number 1): 0.93; Growth Rate (HEK-293T; 24 h, replicate number 1): 0.9; Growth Rate (Fibroblast; 24 h, replicate number 2): 0.8; Growth Rate (U2OS; 6 h, replicate number 1): 0.99; Growth Rate (U2OS; 24 h, replicate number 1): 0.84 |
